Assay results from patent publication US8178535B2, “Substituted sulfonamide compounds having bradykinin 1 receptor activity and use thereof as medicaments” (Gruenenthal GmbH, priority 2008, dated 2012).

Tests used:
[1] = target: T1, human B1R receptor (hB1R) (Homo sapiens, UniProt P46663); assay: FLIPR Ca2+ assay (Fluo-4) on CHO K1 cells stably transfected with the human B1R gene; type: cell-based; conditions: CHO-K1; test substance 10 μM; agonist Lys-Des-Arg9-bradykinin 0.5 nM; % inhibition compared to the maximum achievable inhibition
T1 construct: host or cells: CHO K1 cells
T1 sequence (P46663 1-353): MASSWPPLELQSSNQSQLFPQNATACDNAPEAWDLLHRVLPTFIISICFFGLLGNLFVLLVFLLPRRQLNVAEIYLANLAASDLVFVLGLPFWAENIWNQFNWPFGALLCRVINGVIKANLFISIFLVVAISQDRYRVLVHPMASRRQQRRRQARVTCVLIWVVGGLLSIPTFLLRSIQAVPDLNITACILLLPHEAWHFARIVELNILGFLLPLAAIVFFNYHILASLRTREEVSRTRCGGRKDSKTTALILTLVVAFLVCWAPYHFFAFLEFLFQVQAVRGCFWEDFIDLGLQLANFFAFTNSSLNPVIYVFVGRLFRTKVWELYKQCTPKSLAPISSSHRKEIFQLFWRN
Outline: (§1)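 CHO K1 cells stably expressing human or rat B1R, Fluo-4 loaded, read by FLIPR (Ex 488/Em 540, peak fluorescence). Compound at 10 μM gives % activation vs agonist. After 10 min, agonist added (human: Lys-Des-Arg9-bradykinin 0.5 nM; rat: Des-Arg9-bradykinin 100 nM); % inhibition relative to maximal achievable inhibition.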

[2] = target: T2, B1R receptor of rats (rB1R) (Rattus norvegicus, UniProt P97583); assay: FLIPR Ca2+ assay (Fluo-4) on CHO K1 cells stably transfected with the B1R gene of rats; type: cell-based; conditions: CHO-K1; test substance 10 μM; agonist Des-Arg9-bradykinin 100 nM; % inhibition compared to the maximum achievable inhibition
T2 construct: host or cells: CHO K1 cells
T2 sequence (P97583 1-337): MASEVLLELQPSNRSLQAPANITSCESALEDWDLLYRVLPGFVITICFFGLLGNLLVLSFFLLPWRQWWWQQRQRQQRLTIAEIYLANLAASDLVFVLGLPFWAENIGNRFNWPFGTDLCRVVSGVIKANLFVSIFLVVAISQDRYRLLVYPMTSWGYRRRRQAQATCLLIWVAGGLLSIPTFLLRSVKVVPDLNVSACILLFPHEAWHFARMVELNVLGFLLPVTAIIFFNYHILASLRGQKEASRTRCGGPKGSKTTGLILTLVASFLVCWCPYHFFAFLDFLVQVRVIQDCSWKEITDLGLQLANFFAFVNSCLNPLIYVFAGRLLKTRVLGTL
Outline: as §1

inhibition at 10 µM [1] [%]	inhibition at 10 µM [2] [%]	SMILES
46	100	CN1CCN(CCCc2ccc3n2CCN(C(=O)CC2CCCCN2S(=O)(=O)c2cccc(C(F)(F)F)c2)C3)CC1 (centres unmarked) [(15), 1-(6-(3-(4-methylpiperazin-1-yl)propyl)-3,4-dihydropyrrolo[1,2-a]pyrazin-2(1H)-yl)-2-(1-(3-(trifluoromethyl)phenylsulfonyl)piperidin-2-yl)ethanone]
102	100	CCCCC1c2ccc(CN(C)C)n2CCN1C(=O)COCC1CCCCN1S(=O)(=O)c1c(C)cc(OC)cc1C (centres unmarked) [(67), 1-(1-butyl-6-((dimethylamino)methyl)-3,4-dihydropyrrolo[1,2-a]pyrazin-2(1H)-yl)-2-((1-(4-methoxy-2,6-dimethylphenylsulfonyl)piperidin-2-yl)methoxy)ethanone]
38	100	Cc1cc(C)c(S(=O)(=O)N2CCCCC2COCC(=O)N2CCn3cccc3C2c2ccc(F)c(F)c2)c(C)c1 (centres unmarked) [(40), 1-(1-(3,4-difluorophenyl)-3,4-dihydropyrrolo[1,2-a]pyrazin-2(1H)-yl)-2-((1-(mesitylsulfonyl)piperidin-2-yl)methoxy)ethanone]
97	103	CCC1c2ccc(C)n2CCN1C(=O)COCC1CCCCN1S(=O)(=O)c1c(C)cc(C)cc1C (centres unmarked) [(58), 1-(1-ethyl-6-methyl-3,4-dihydropyrrolo[1,2-a]pyrazin-2(1H)-yl)-2-((1-(mesitylsulfonyl)piperidin-2-yl)methoxy)ethanone]
35	98	Cc1cc(C)c(S(=O)(=O)N2CCCCC2COCC(=O)N2CCn3cccc3C2c2ccc(C)c(C)c2)c(C)c1 (centres unmarked) [(41), 1-(1-(3,4-dimethylphenyl)-3,4-dihydropyrrolo[1,2-a]pyrazin-2(1H)-yl)-2-((1-(mesitylsulfonyl)piperidin-2-yl)methoxy)ethanone]
95	98	CCC1c2cccn2CCN1C(=O)CCC1CCCCN1S(=O)(=O)c1c(C)cc(OC)cc1C (centres unmarked) [(85), 1-(1-ethyl-3,4-dihydropyrrolo[1,2-a]pyrazin-2(1H)-yl)-3-(1-(4-methoxy-2,6-dimethylphenylsulfonyl)piperidin-2-yl)propan-1-one]
90	99	Cc1cc(S(=O)(=O)N2CCCCC2CCC(=O)N2CCn3c(CCCN4CCCC4)ccc3C2)c(C)cc1Cl (centres unmarked) [(18), 3-(1-(4-chloro-2,5-dimethylphenylsulfonyl)piperidin-2-yl)-1-(6-(3-(pyrrolidin-1-yl)propyl)-3,4-dihydropyrrolo[1,2-a]pyrazin-2(1H)-yl)propan-1-one]
102	96	COc1cc(C)c(S(=O)(=O)N2CCCCC2COCC(=O)N2CCn3cccc3C2C(C)(C)C)c(C)c1 (centres unmarked) [(19), 1-(1-tert-butyl-3,4-dihydropyrrolo[1,2-a]pyrazin-2(1H)-yl)-2-((1-(4-methoxy-2,6-dimethyl-phenylsulfonyl)piperidin-2-yl)methoxy)ethanone]
18	55	O=C(CC1CCCCN1S(=O)(=O)c1cccc(C(F)(F)F)c1)N1CCn2c(ccc2-c2cccnc2)C1 (centres unmarked) [(93), 1-(6-(Pyridin-3-yl)-3,4-dihydropyrrolo[1,2-a]pyrazin-2(1H)-yl)-2-(1-(3-(trifluoromethyl)phenylsulfonyl)piperidin-2-yl)ethanone]
25	47	O=C(CC1CCCCN1S(=O)(=O)c1cccc(C(F)(F)F)c1)N1CCn2c(Cc3ccncc3)ccc2C1 (centres unmarked) [(90), 1-(6-(Pyridin-4-ylmethyl)-3,4-dihydropyrrolo[1,2-a]pyrazin-2(1H)-yl)-2-(1-(3-(trifluoromethyl)phenylsulfonyl)piperidin-2-yl)ethanone]
99	105	COc1cc(C)c(S(=O)(=O)N2CCCCC2COCC(=O)N2CCn3cc(Cc4ccncc4)nc3C2)c(C)c1 (centres unmarked) [(120), 2-((1-(4-Methoxy-2,6-dimethylphenylsulfonyl)piperidin-2-yl)methoxy)-1-(2-(pyridin-4-ylmethyl)-5,6-dihydroimidazo[1,2-a]pyrazin-7(8H)-yl)ethanone]
101	98	COc1ccc(C2c3cccn3CCN2C(=O)COCC2CCCCN2S(=O)(=O)c2c(C)cc(OC)cc2C)cc1 (centres unmarked) [(24), 2-((1-(4-methoxy-2,6-dimethylphenylsulfonyl)piperidin-2-yl)methoxy)-1-(1-(4-methoxyphenyl)-3,4-dihydropyrrolo[1,2-a]pyrazin-2(1H)-yl)ethanone]
99	96	O=C(CC1CCCCN1S(=O)(=O)c1cccc(C(F)(F)F)c1)N1CCn2c(CN3CCCC3)ccc2C1 (centres unmarked) [(8), 1-(6-(pyrrolidin-1-ylmethyl)-3,4-dihydropyrrolo[1,2-a]pyrazin-2(1H)-yl)-2-(1-(3-(trifluoromethyl)phenylsulfonyl)piperidin-2-yl)ethanone]
101	101	Cc1cc(C)c(S(=O)(=O)N2CCCCC2COCC(=O)N2CCn3c(CN(C)C)ccc3C2CCc2ccccc2)c(C)c1 (centres unmarked) [(51), 1-(6-((dimethylamino)methyl)-1-phenethyl-3,4-dihydropyrrolo[1,2-a]pyrazin-2(1H)-yl)-2-((1-(mesitylsulfonyl)piperidin-2-yl)methoxy)ethanone]
82	98	COc1cc(C)c(S(=O)(=O)N2CCCCC2CCC(=O)N2CCn3cc(CCc4ccncc4)nc3C2)c(C)c1 (centres unmarked) [(117), 3-(1-(4-Methoxy-2,6-dimethylphenylsulfonyl)piperidin-2-yl)-1-(2-(2-(pyridin-4-yl)ethyl)-5,6-dihydroimidazo[1,2-a]pyrazin-7(8H)-yl)propan-1-one]
103	103	Cc1cc(C)c(S(=O)(=O)N2CCCCC2COCC(=O)N2CCn3c(CN4CCCCC4)ccc3C2c2ccccc2)c(C)c1 (centres unmarked) [(48), 2-((1-(mesitylsulfonyl)piperidin-2-yl)methoxy)-1-(1-phenyl-6-(piperidin-1-yl-methyl)-3,4-dihydropyrrolo[1,2-a]pyrazin-2(1H)-yl)ethanone]
